Read-outs that look alike come from different tables or passages of the source. Square brackets hold non-standard residues; d marks the D form. Peptide text beside a SMILES is read from it. Cha = N[C@@H](CC1CCCCC1)C(=O)O
Legend:
[1] = target: T1, E. coli SC (^EcSC, beta ring, DnaN) (Escherichia coli, UniProt P0A988); experiment: ITC, peptide interaction with E. coli sliding clamp; format: binding
T1 construct: inferred from the pET15b vector and the Ni-NTA/imidazole purification; made in house; host or cells: E. coli BL21 (DE3) pLys

[2] = system: E. coli D22 cells; conditions: FITC staining after exposure to equal amounts, FIG. 1
Method: FIG. 1 concerns the analysis of peptide penetration into E. coli cells. (a) Fluorescence microscopy of E. coli cells exposed to the three different FITC labeled peptides.
In order to analyse the penetration capacity of the peptides in E. coli D22 cells, FITC-labeled peptides were added to 1 ml of bacterial cultures (OD600=0.8) at a final concentration of 8 μg/ml. The cells were allowed to acquire the peptides for 1 h at 37° C., washed 3 times with 0.5 ml PBS, fixed with 1% formaldehyde solution in PBS for 45 min at room temperature, washed 3 times with 0.5 ml PBS and finally resuspended in 50 μl PBS. Cells were visualized using a Leica DM5500 microscope equipped with a 100× objective and images were processed using Fiji software. One-way ANOVA statistical analysis was performed with the R package.

[3] = target: T2, E coli β SC (Escherichia coli, UniProt P0A988); experiment: Co-immunoprecipitation of FITC peptides with E. coli β SC; format: cell-based; conditions: E. coli D22 cells, 1 hour, 16 μM FITC labelled peptide, FIG. 4
T2 construct: endogenous in cells; host or cells: E. coli D22
Method: FIG. 4 concerns the co-immunoprecipitation of FITC-K-Py-P7 peptide with the E coli β SC. E. coli D22 cells were incubated for 1 hour with or without 16 μM of the indicated FITC labelled peptide (lanes 1 and 5: no peptide; lanes 2 and 6: FITC-K-Pyr; lanes 3 and 7: FITC-K-Py-P7Scr; lanes 4 and 8: FITC-K-Py-P7). Lanes 1-4: 5% of the pre-cleared extracts were loaded as input controls. Lanes 5: Ig G sepharose beads pull down of the pre-cleared extracts not exposed to anti-FITC antibody. Lanes 6 to 8: Ig G sepharose beads pull down of the pre-cleared extracts previously incubated with FITC-labelled peptides and then exposed to anti-FITC antibody. Lanes 9-11: purified native β SC protein (lane 9: 5 ng; lane 10: 10 ng; lane 11: 20 ng). Upper image: western blot using the Ab 246, β SC specific monoclonal antibody. Lower image: total protein staining of the same membrane. M: Molecular weight markers.

[4] = system: E. coli ATCC 25922 (DSM 1103) strain; format: cell-based; conditions: ATCC 25922, 36 h
Method: E. coli strains were cultivated on either agar or liquid 1× Mueller Hinton broth unless specified. MIC assays were performed in duplicate in 96-well microtiter plates on the basis of the protocol recommended by the Clinical and Laboratory Standards Institute. Briefly, a mix of 5-6 fresh (less than 36 hours) colonies grown on MH agar plates were inoculated in 3 ml of MH broth and incubated for about 16 h at 37° C. under agitation. 30 μl of this saturated culture were inoculated in 3 ml of fresh medium and allowed to grow until OD600 nm of about 0.6-0.8. Dilution to an OD600 nm of 0.002 was made in MH broth. Within a time laps not exceeding 30 min, 50 μl of this cell suspension was added to 50 μl of MH broth (containing or not the peptide/antibiotic diluted in MH broth) in wells of a 96-well round bottom microwell plate (Greiner; final cell density about 2 to 5×10^5 cfu/ml). Plates were incubated at 37° C. for 18-24 h and final turbidity of each well was measured at 620 nm using a Multiskan FC microplate reader (Thermo Scientific). MIC was defined as the minimal antibiotic concentration that result in no increase of turbidity at that time. Each MIC determination was performed in duplicate and at least in two independent experiments. Plating of 75 μl of the content of the wells of interest on LB Agar plates was used to determine the MBC that is defined by a decrease of at least 99.9% of cell viability as compared to the number of viable cells in the inoculum (about 2 to 5×10^4 cfu).
The antimicrobial activities of these peptides have been tested against the E. coli ATCC 25922 (DSM 1103) strain in 1× Mueller-Hinton broth as mentioned above.
The antimicrobial activities of these peptides and controls have been tested against the E. coli ATCC 25922 (DSM 1103) strain in 1× Mueller-Hinton broth.

[5] = system: E. coli; conditions: cited from earlier work
[6] = target: Human PCNA (Homo sapiens, UniProt P12004); experiment: ITC, peptide interaction with human PCNA; format: binding; conditions: ITC 30° C.
Method: The inventors have compared the affinities of the prototypical P7 SC-binding peptide for the bacterial SC and for the eukaryotic functional homolog “Proliferating Cell Nuclear Antigen” PCNA. The same analysis was performed with the DPD1 peptide that contains a well-described specific PCNA Interacting Peptide (PIP) sequence ([…]).

[7] = ITC 30° C. (303.15 K), Table 2A, ^EcSC, Ni = no specific interaction
[8] = ITC 30° C., Table 2A, ^EcSC, Ni = no specific interaction
[9] = ITC 25° C., E. coli SC (beta ring)

T1 sequence (P0A988 whole entry): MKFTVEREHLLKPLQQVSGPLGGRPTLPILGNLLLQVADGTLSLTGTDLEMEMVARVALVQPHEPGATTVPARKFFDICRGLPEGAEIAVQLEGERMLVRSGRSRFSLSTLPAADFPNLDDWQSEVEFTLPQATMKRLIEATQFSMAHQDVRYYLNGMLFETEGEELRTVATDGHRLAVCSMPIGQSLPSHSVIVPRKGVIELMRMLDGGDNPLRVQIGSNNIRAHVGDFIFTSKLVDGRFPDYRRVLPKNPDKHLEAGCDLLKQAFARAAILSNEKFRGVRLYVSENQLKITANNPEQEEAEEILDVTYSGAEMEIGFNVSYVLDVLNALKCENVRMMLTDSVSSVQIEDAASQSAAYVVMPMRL
Sequence of Human PCNA (P12004 whole entry): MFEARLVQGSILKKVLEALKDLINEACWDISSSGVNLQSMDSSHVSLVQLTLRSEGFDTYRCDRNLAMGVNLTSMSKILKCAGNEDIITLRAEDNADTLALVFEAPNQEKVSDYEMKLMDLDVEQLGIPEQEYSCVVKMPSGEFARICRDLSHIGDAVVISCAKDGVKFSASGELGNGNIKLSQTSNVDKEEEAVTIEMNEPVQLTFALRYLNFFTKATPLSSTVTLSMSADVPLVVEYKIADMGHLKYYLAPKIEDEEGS
T2 sequence (P0A988 whole entry): as the sequence (P0A988 whole entry) above

## CC[C@H](C)[C@H](NC(=O)[C@@H](CCCNC(=N)N)NC(=O)[C@H](CCCNC(=N)N)NC(=O)[C@@H]1CCCN1C(=O)[C@@H]1CCCN1C(=O)[C@H](CCCNC(=N)N)NC(=O)[C@@H]1CCCN1C(=O)[C@H](CCCNC(=N)N)NC(=O)[C@@H]1CCCN1C(=O)[C@H](CC(C)C)NC(=O)[C@H](Cc1ccc(O)cc1)NC(=O)[C@@H]1CCCN1C(=O)[C@@H]1CCCN1C(=O)[C@H](CCCCN)NC(=O)[C@H](CC(=O)O)NC(=O)[C@@H](N)C(C)C)C(=O)N[C@@H](Cc1ccc(O)cc1)C(=O)N[C@@H](CC(N)=O)C(=O)N[C@H](CCCNC(=N)N)C(=O)N[C@@H](CC(N)=O)C(=O)NCC(=O)N1CCC[C@H]1C(=O)N[C@@H](CCCNC(=N)N)C(=O)N[C@@H](CC1CCCCC1)C(=O)N[C@@H](Cc1ccccc1)C(=O)N[C@@H](CCC(N)=O)C(=O)N[C@@H](CC(C)C)C(=O)N[C@@H](CC(=O)O)C(=O)O [Peptide P120] (H-VDKPPYLPRPRPPR[dR]IYN[dR]NGPR[Cha]FQLD-OH)
[1]; ITC 30° C.
  interaction with ^EcSC, in words: fail to interact
[1]; [7]
  ΔH (kcal/mole): Ni
[1]; [8]
  Kd (nM): Ni
  ΔG (kcal/mole): Ni
  −TΔS (kcal/mole): Ni

## CC[C@H](C)[C@H](NC(=O)[C@@H]1CCCN1C(=O)[C@H](CCCNC(=N)N)NC(=O)[C@@H]1CCCN1C(=O)[C@@H]1CCCN1C(=O)[C@@H](NC(=O)[C@@H]1CCCN1C(=O)[C@H](CCCNC(=N)N)NC(=O)[C@@H]1CCCN1C(=O)[C@H](CC(C)C)NC(=O)[C@H](Cc1ccc(O)cc1)NC(=O)[C@H](CO)NC(=O)CNC(=O)[C@H](CCCCN)NC(=O)[C@H](CC(=O)O)NC(=O)[C@@H](NC(=O)[C@H](CCCCN)NC(=O)c1ccc2c(c1)C(=O)OC21c2ccc(O)cc2Oc2cc(O)ccc21)C(C)C)[C@@H](C)O)C(=O)N[C@@H](Cc1ccc(O)cc1)C(=O)N[C@@H](CC(N)=O)C(=O)N[C@@H](CCCNC(=N)N)C(=O)N[C@@H](CC(N)=O)C(=O)NCC(=O)N1CCC[C@H]1C(=O)N[C@@H](CCCNC(=N)N)C(=O)N[C@@H](CCC(N)=O)C(=O)N[C@@H](CC1CCCCC1)C(=O)N[C@@H](CC(=O)O)C(=O)N[C@@H](CC(C)C)C(=O)N[C@@H](Cc1ccccc1)C(=O)O [Peptide P150]
[1]; ITC 30° C.
  interaction with ^EcSC, in words: similarly interacts
[1]; [7]
  ΔH: -17.2 kcal/mol
[1]; [8]
  ΔG: -8.99 kcal/mol
  −TΔS: 8.21 kcal/mol
[2]
  entry into E. coli cells, times less efficiently than P122: about 3 times
[3]
  binding of SC within the bacterial cytoplasm (co-immunoprecipitation), in words: can efficiently bind SC

## CC[C@H](C)[C@H](NC(=O)[C@@H](CCCNC(=N)N)NC(=O)[C@H](CCCNC(=N)N)NC(=O)[C@@H]1CCCN1C(=O)[C@@H]1CCCN1C(=O)[C@H](CCCNC(=N)N)NC(=O)[C@@H]1CCCN1C(=O)[C@H](CCCNC(=N)N)NC(=O)[C@@H]1CCCN1C(=O)[C@H](CC(C)C)NC(=O)[C@H](Cc1ccc(O)cc1)NC(=O)[C@@H]1CCCN1C(=O)[C@@H]1CCCN1C(=O)[C@H](CCCCN)NC(=O)[C@H](CC(=O)O)NC(=O)[C@@H](N)C(C)C)C(=O)N[C@@H](Cc1ccc(O)cc1)C(=O)N[C@@H](CC(N)=O)C(=O)N[C@H](CCCNC(=N)N)C(N)=O [Peptide P28, reference compound] (H-VDKPPYLPRPRPPR[dR]IYN[dR]-NH2; N-terminus assumed)
[1]; ITC 30° C.
  interaction with ^EcSC, in words: do not interact
[1]; [7]
  ΔH (kcal/mole): Ni
[1]; [8]
  Kd (nM): Ni
  ΔG (kcal/mole): Ni
  −TΔS (kcal/mole): Ni
[4]
  MIC: 2 to 8 µM
[5]
  MIC of previous reports: 0.82 µM
[5]; other E. coli strains and/or culture media
  MIC of previous reports: 2 µg/mL

## CC[C@H](C)[C@H](NC(=O)[C@@H](CCCNC(=N)N)NC(=O)[C@H](CCCNC(=N)N)NC(=O)[C@@H]1CCCN1C(=O)[C@@H]1CCCN1C(=O)[C@H](CCCNC(=N)N)NC(=O)[C@@H]1CCCN1C(=O)[C@H](CCCNC(=N)N)NC(=O)[C@@H]1CCCN1C(=O)[C@H](CC(C)C)NC(=O)[C@H](Cc1ccc(O)cc1)NC(=O)[C@@H]1CCCN1C(=O)[C@@H]1CCCN1C(=O)[C@H](CCCCN)NC(=O)[C@H](CC(=O)O)NC(=O)[C@@H](N)C(C)C)C(=O)N[C@@H](Cc1ccc(O)cc1)C(=O)N[C@@H](CC(N)=O)C(=O)N[C@H](CCCNC(=N)N)C(=O)N[C@@H](CC(N)=O)C(=O)NCC(=O)N1CCC[C@H]1C(=O)N[C@@H](CCCNC(=N)N)C(=O)N[C@@H](CCC(N)=O)C(=O)N[C@@H](CC1CCCCC1)C(=O)N[C@@H](CC(=O)O)C(=O)N[C@@H](CC(C)C)C(=O)N[C@@H](Cc1ccccc1)C(=O)O [Peptide P30] (H-VDKPPYLPRPRPPR[dR]IYN[dR]NGPRQ[Cha]DLF-OH)
[1]; [9]
  ΔG: -9.2 kcal/mol
  ΔH: -14.6 kcal/mol
[1]; ITC 30° C.
  interaction with ^EcSC, in words: as efficiently as P7 alone
[1]; [7]
  ΔH: -13.5 kcal/mol
[1]; [8]
  ΔG: -9.28 kcal/mol
  −TΔS: 4.2 kcal/mol
[4]
  MIC: 16 to 32 µM

## CC(=O)N[C@@H](CCC(N)=O)C(=O)N[C@@H](CC1CCCCC1)C(=O)N[C@@H](CC(=O)O)C(=O)N[C@@H](CC(C)C)C(=O)N[C@@H](Cc1ccccc1)C(=O)O [Peptide P7, Ac-QChaDLF-OH, reference compound] (Ac-Q[Cha]DLF-OH)
[1]; [9]
  ΔG: -9.2 kcal/mol
  ΔH: -15.4 kcal/mol
[1]; [7]
  ΔH: -13.7 kcal/mol
[1]; ITC 30° C., E.coli SC, specificity comparison with PCNA
  ΔH: -12.05 kcal/mol
[1]; [8]
  ΔG: -9.00 kcal/mol
  −TΔS: 4.71 kcal/mol
[1]; dissociation constant (Kd) for ^EcSC, at 30° C.
  Kd: 400 nM
[1]; versus RQLVLGL from E. coli DNA polymerase IV
  fold increase of affinity for ^EcSC compared to natural SC binding peptide (RQLVLGL): 50 fold
[6]
  interaction with Human PCNA, in words: no interaction could be detected

From patent US12098217B2, “Fusion peptides as antimicrobial agents” (CENTRE NATIONAL DE LA RECHERCHE SCIENTIFIQUE, priority 2019, dated 2024)
